Laboratory results: the supplement of paper PMC10307832

Experiments:
Assay in all cases: relative viability (nuclei count vs DMSO), 5 days (fraction); higher = more cells survive
[1] = compound: C[C@@]1(C(=O)Nc2ccc(F)nc2)CCCN1c1nc(Nc2cc(C3CC3)n[nH]2)c2cccn2n1 + O=C(CCCCCCC(=O)Nc1ccccc1)NO [Vorinostat] (partner 1 µM)
How it was run: (§1)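 Each reported value is a median over duplicate plates. It expresses relative viability: treated-well nuclei count divided by vehicle-well nuclei count. Lung cancer cell lines in 1536-well plates were dosed by pin tool a day after seeding, alone with one drug or with a fixed anchor-drug dose plus five library-drug doses (not always all listed) in √10 steps, and nuclei were counted after 5 days.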

[2] = compound: CC1(C)CNc2cc(NC(=O)c3cccnc3NCc3ccncc3)ccc21 [Motesanib] + Cc1nc(NC(=O)N2CCC[C@H]2C(N)=O)sc1-c1ccnc(C(C)(C)C(F)(F)F)c1 [Alpelisib] (partner 2 µM)
How it was run: as §1

[3] = compound: CC1(C)CNc2cc(NC(=O)c3cccnc3NCc3ccncc3)ccc21 [Motesanib] + N=C(N)NC(=N)NCCc1ccccc1 [Phenformin] (partner 250 µM)
How it was run: as §1

[4] = compound: CC1(C)CNc2cc(NC(=O)c3cccnc3NCc3ccncc3)ccc21 [Motesanib] + CC(=O)Nc1cccc(-n2c(=O)n(C3CC3)c(=O)c3c(Nc4ccc(I)cc4F)n(C)c(=O)c(C)c32)c1 [Trametinib] (partner 0.02 µM)
How it was run: as §1

Cell Line	relative viability ([1]; first compound 0.04 µM)	relative viability ([1]; first compound 0.1265 µM)	relative viability ([1]; first compound 0.4 µM)	relative viability ([1]; first compound 1.265 µM)	relative viability ([2]; first compound 0.01 µM)	relative viability ([2]; first compound 0.03162 µM)	relative viability ([2]; first compound 0.1 µM)	relative viability ([2]; first compound 0.3162 µM)	relative viability ([2]; first compound 1 µM)	relative viability ([3]; first compound 0.01 µM)	relative viability ([3]; first compound 0.03162 µM)	relative viability ([3]; first compound 0.1 µM)	relative viability ([3]; first compound 0.3162 µM)	relative viability ([3]; first compound 1 µM)	relative viability ([4]; first compound 0.01 µM)	relative viability ([4]; first compound 0.03162 µM)	relative viability ([4]; first compound 0.1 µM)	relative viability ([4]; first compound 0.3162 µM)	relative viability ([4]; first compound 1 µM)
LXF-289	0.815	0.701	0.73	0.792	0.983	1.05	1.06	1.05	1.04	0.526	0.478	0.573	0.529	0.521	0.624	0.684	0.689	0.728	0.704
NCI-H23	0.473	0.332	0.27	0.178	0.798	0.481		0.639	0.603	0.799	0.865	0.771	0.795	0.715	0.392	0.341	0.37	0.432	0.382
NCI-H322M	0.794	0.688	0.638	0.64	0.713	0.737	0.837	0.751	0.778	0.748	0.823	0.806	0.798	0.791	0.471	0.558	0.554	0.527	0.545
NCI-H522	0.864	0.809	0.69	0.875						0.644	0.634	0.581	0.582	0.667	0.815	0.848	0.823	0.831	0.84
NCI-H1299					1.03	1.09	1.15	1.11	1.12										
NCI-H1563					0.985	0.92	0.946	0.879	0.95	0.617	0.598	0.697	0.715	0.655					
NCI-H1623										0.551	0.613	0.594	0.617	0.578					
NCI-H1648	0.363	0.332	0.221	0.443											0.433			0.566	0.471
NCI-H1650	0.568	0.445	0.494	0.311						0.489	0.304	0.394	0.417	0.403	0.684	0.531	0.636	0.547	0.623
NCI-H1703					0.294	0.283	0.211	0.183	0.239										
NCI-H1792					0.702	0.63	0.78	0.757	0.685	0.202		0.367	0.258	0.243	0.511	0.37	0.43	0.528	0.442
NCI-H2342	0.803	0.708	0.696	0.582						0.448	0.588	0.807	0.562	0.662	0.933	0.715	0.907	0.77	0.959
SW 900	0.557	0.426	0.432	0.468						0.58	0.599	0.552	0.621	0.739	0.855	0.764	0.938	0.683	0.848
